# Assay results reported in ChEMBL document CHEMBL3045770, “Design and synthesis of some thieno[2,3-c]pyridazine derivatives of expected anticancer activity” (2013).
# Assays:
# Assay type in all cases: functional
# SNB-19 = experiment: Cytotoxicity against Homo sapiens (human) SNB19 assessed as cell growth at 10 uM after 48 hr by SRB assay relative to control; details: SNB-19, 48 h, read-out: Activity
# SNB-75 = experiment: Cytotoxicity against Homo sapiens (human) SNB75 assessed as cell growth at 10 uM after 48 hr by SRB assay relative to control; details: SNB-75, 48 h, read-out: Activity
# SF-268 = experiment: Cytotoxicity against Homo sapiens (human) SF268 assessed as cell growth at 10 uM after 48 hr by SRB assay relative to control; details: SF-268, 48 h, read-out: Activity
# SF-295 = experiment: Cytotoxicity against Homo sapiens (human) SF295 assessed as cell growth at 10 uM after 48 hr by SRB assay relative to control; details: SF-295, 48 h, read-out: Activity
# SW-620 = experiment: Cytotoxicity against Homo sapiens (human) SW620 assessed as cell growth at 10 uM after 48 hr by SRB assay relative to control; details: SW-620, 48 h, read-out: Activity
# KM12 = experiment: Cytotoxicity against Homo sapiens (human) KM12 assessed as cell growth at 10 uM after 48 hr by SRB assay relative to control; details: KM12, 48 h, read-out: Activity
# HCT-15 = experiment: Cytotoxicity against Homo sapiens (human) HCT15 assessed as cell growth at 10 uM after 48 hr by SRB assay relative to control; details: HCT-15, 48 h, read-out: Activity
# HCT-116 = experiment: Cytotoxicity against Homo sapiens (human) HCT116 assessed as cell growth at 10 uM after 48 hr by SRB assay relative to control; details: HCT-116, 48 h, read-out: Activity
# COLO 205 = experiment: Cytotoxicity against Homo sapiens (human) COLO205 assessed as cell growth at 10 uM after 48 hr by SRB assay relative to control; details: COLO 205, 48 h, read-out: Activity
# NCI-H522 = experiment: Cytotoxicity against Homo sapiens (human) NCI-H522 assessed as cell growth at 10 uM after 48 hr by SRB assay relative to control; details: NCI-H522, 48 h, read-out: Activity
# NCI-H460 = experiment: Cytotoxicity against Homo sapiens (human) NCI-H460 assessed as cell growth at 10 uM after 48 hr by SRB assay relative to control; details: NCI-H460, 48 h, read-out: Activity
# NCI-H226 = experiment: Cytotoxicity against Homo sapiens (human) NCI-H226 assessed as cell growth at 10 uM after 48 hr by SRB assay relative to control; details: NCI-H226, 48 h, read-out: Activity
# NCI-H23 = experiment: Cytotoxicity against Homo sapiens (human) NCI-H23 assessed as cell growth at 10 uM after 48 hr by SRB assay relative to control; details: NCI-H23, 48 h, read-out: Activity
# HOP-92 = experiment: Cytotoxicity against Homo sapiens (human) HOP92 assessed as cell growth at 10 uM after 48 hr by SRB assay relative to control; details: HOP-92, 48 h, read-out: Activity
# A549 = experiment: Cytotoxicity against Homo sapiens (human) A549 assessed as cell growth at 10 uM after 48 hr by SRB assay relative to control; details: A549, 48 h, read-out: Activity
# SR = experiment: Cytotoxicity against Homo sapiens (human) SR assessed as cell growth at 10 uM after 48 hr by SRB assay relative to control; details: read-out: Activity
# MOLT-4 = experiment: Cytotoxicity against Homo sapiens (human) MOLT4 assessed as cell growth at 10 uM after 48 hr by SRB assay relative to control; details: MOLT-4, 48 h, read-out: Activity
# CAKI-1 = experiment: Cytotoxicity against Homo sapiens (human) Caki1 assessed as cell growth at 10 uM after 48 hr by SRB assay relative to control; details: CAKI-1, 48 h, read-out: Activity
# MCF7 = experiment: Cytotoxicity against Homo sapiens (human) MCF7 assessed as cell growth at 10 uM after 48 hr by SRB assay relative to control; details: MCF7, 48 h, read-out: Activity
# [1] = Cytotoxicity against Homo sapiens (human) NCI-ADR-RES assessed as cell growth at 10 uM after 48 hr by SRB assay relative to control; details: read-out: Activity
# OVCAR-8 = experiment: Cytotoxicity against Homo sapiens (human) OVCAR8 assessed as cell growth at 10 uM after 48 hr by SRB assay relative to control; details: OVCAR-8, 48 h, read-out: Activity
# OVCAR-5 = experiment: Cytotoxicity against Homo sapiens (human) OVCAR5 assessed as cell growth at 10 uM after 48 hr by SRB assay relative to control; details: OVCAR-5, 48 h, read-out: Activity
# UACC-257 = experiment: Cytotoxicity against Homo sapiens (human) UACC257 assessed as cell growth at 10 uM after 48 hr by SRB assay relative to control; details: UACC-257, 48 h, read-out: Activity
# M14 = experiment: Cytotoxicity against Homo sapiens (human) M14 assessed as cell growth at 10 uM after 48 hr by SRB assay relative to control; details: M14, 48 h, read-out: Activity
# CCRF-CEM = experiment: Cytotoxicity against Homo sapiens (human) CCRF-CEM assessed as cell growth at 10 uM after 48 hr by SRB assay relative to control; details: read-out: Activity
# HL-60(TB) = experiment: Cytotoxicity against Homo sapiens (human) HL-60(TB) assessed as cell growth at 10 uM after 48 hr by SRB assay relative to control; details: HL-60, 48 h, read-out: Activity
# MDA-MB-468 = experiment: Cytotoxicity against Homo sapiens (human) MDA-MB-468 assessed as cell growth at 10 uM after 48 hr by SRB assay relative to control; details: MDA-MB-468, 48 h, read-out: Activity
# T47D = experiment: Cytotoxicity against Homo sapiens (human) T47D assessed as cell growth at 10 uM after 48 hr by SRB assay relative to control; details: read-out: Activity
# BT-549 = experiment: Cytotoxicity against Homo sapiens (human) BT549 assessed as cell growth at 10 uM after 48 hr by SRB assay relative to control; details: BT-549, 48 h, read-out: Activity
# MDA-MB-231 = experiment: Cytotoxicity against Homo sapiens (human) MDA-MB-231 assessed as cell growth at 10 uM after 48 hr by SRB assay relative to control; details: MDA-MB-231, 48 h, read-out: Activity
# Hs-578T = experiment: Cytotoxicity against Homo sapiens (human) Hs 578T assessed as cell growth at 10 uM after 48 hr by SRB assay relative to control; details: read-out: Activity
# TK-10 = experiment: Cytotoxicity against Homo sapiens (human) TK10 assessed as cell growth at 10 uM after 48 hr by SRB assay relative to control; details: TK-10, 48 h, read-out: Activity
# EKVX = experiment: Cytotoxicity against Homo sapiens (human) EKVX assessed as cell growth at 10 uM after 48 hr by SRB assay relative to control; details: read-out: Activity
SMILES,growth at 10 µM (SNB-19) [%],growth at 10 µM (SNB-75) [%],growth at 10 µM (SF-268) [%],growth at 10 µM (SF-295) [%],growth at 10 µM (SW-620) [%],growth at 10 µM (KM12) [%],growth at 10 µM (HCT-15) [%],growth at 10 µM (HCT-116) [%],growth at 10 µM (COLO 205) [%],growth at 10 µM (NCI-H522) [%],growth at 10 µM (NCI-H460) [%],growth at 10 µM (NCI-H226) [%],growth at 10 µM (A549) [%],growth at 10 µM (SR) [%],growth at 10 µM (MOLT-4) [%],growth at 10 µM (CAKI-1) [%],growth at 10 µM [1] [%],growth at 10 µM (OVCAR-8) [%],growth at 10 µM (OVCAR-5) [%],growth at 10 µM (UACC-257) [%],further results
CC(=O)Oc1c(C2=NN(C(C)=O)C(c3ccccc3[N+](=O)[O-])O2)sc2nnc(-c3ccccc3)c(-c3ccccc3)c12 (stereo unspecified),88.6,76.3,85.6,85,82.8,108,78,76.8,108,92,100,93,103,49,47.2,98,98.4,90.1,95.1,101,growth at 10 µM (NCI-H23): 101%; growth at 10 µM (HOP-92): 72.3%; growth at 10 µM (MCF7): 64%; growth at 10 µM (M14): 91.8%; growth at 10 µM (CCRF-CEM): 19.6%; growth at 10 µM (HL-60(TB)): 58.9%; growth at 10 µM (MDA-MB-468): 86.5%; growth at 10 µM (T47D): 97.5%; growth at 10 µM (BT-549): 89.8%; growth at 10 µM (MDA-MB-231): 89.6%; growth at 10 µM (Hs-578T): 114%; growth at 10 µM (TK-10): 107%
CC1=NN(C(=O)c2sc3nnc(-c4ccccc4)c(-c4ccccc4)c3c2O)C(=O)C1,60.7,90,88.3,48.8,79.4,71.3,49,89.8,111,87.4,52.2,91.9,84.5,68.6,67.8,31,16,87,117,86.8,growth at 10 µM (NCI-H23): 82.6%; growth at 10 µM (HOP-92): 69.5%; growth at 10 µM (EKVX): 74.3%; growth at 10 µM (MCF7): 85.1%; growth at 10 µM (M14): 87.4%; growth at 10 µM (CCRF-CEM): 49.5%; growth at 10 µM (HL-60(TB)): 69.4%; growth at 10 µM (MDA-MB-468): 80.5%; growth at 10 µM (T47D): 82.2%; growth at 10 µM (BT-549): 104%; growth at 10 µM (MDA-MB-231): 122%; growth at 10 µM (Hs-578T): 89.6%; growth at 10 µM (TK-10): 103%
CSc1nnc(-c2sc3nnc(-c4ccccc4)c(-c4ccccc4)c3c2O)o1,66.4,78.4,80.6,40.9,92.5,72.9,54.6,60.9,110,96.6,56.7,87.7,80.5,62.5,61.9,43.5,85.5,85.8,101,91.6,growth at 10 µM (EKVX): 77.5%; growth at 10 µM (MCF7): 83.5%; growth at 10 µM (M14): 73%; growth at 10 µM (CCRF-CEM): 47.4%; growth at 10 µM (HL-60(TB)): 107%; growth at 10 µM (MDA-MB-468): 78.9%; growth at 10 µM (T47D): 75%; growth at 10 µM (BT-549): 74.1%; growth at 10 µM (MDA-MB-231): 90.4%; growth at 10 µM (Hs-578T): 98.4%; growth at 10 µM (TK-10): 100%
Oc1c(-c2nnc(-c3ccc(Cl)cc3)o2)sc2nnc(-c3ccccc3)c(-c3ccccc3)c12,43.9,62.8,55.2,23.5,35.6,39.2,32,19.3,67.4,75.1,27.4,67.2,51.2,35.1,35.8,24.5,15.5,46.1,84.8,85,growth at 10 µM (NCI-H23): 56.5%; growth at 10 µM (HOP-92): 54.5%; growth at 10 µM (EKVX): 58.5%; growth at 10 µM (MCF7): 33.5%; growth at 10 µM (M14): 55.3%; growth at 10 µM (CCRF-CEM): 27.6%; growth at 10 µM (HL-60(TB)): 52.5%; growth at 10 µM (MDA-MB-468): 44.6%; growth at 10 µM (T47D): 53%; growth at 10 µM (BT-549): 56%; growth at 10 µM (MDA-MB-231): 77.9%; growth at 10 µM (Hs-578T): 62.4%; growth at 10 µM (TK-10): 59%
CCOC(=O)c1c(Nc2ccc(S(N)(=O)=O)cc2)nnc(-c2ccccc2)c1-c1ccccc1,108,84.6,105,88.5,105,104,93.4,93.3,113,111,108,102,90.9,76.1,78.2,83.8,96.8,99.8,116,101,growth at 10 µM (NCI-H23): 115%; growth at 10 µM (HOP-92): 86.5%; growth at 10 µM (EKVX): 105%; growth at 10 µM (M14): 104%; growth at 10 µM (CCRF-CEM): 81.8%; growth at 10 µM (HL-60(TB)): 71.2%; growth at 10 µM (MDA-MB-468): 97.9%; growth at 10 µM (T47D): 91.3%; growth at 10 µM (BT-549): 95%; growth at 10 µM (MDA-MB-231): 108%; growth at 10 µM (Hs-578T): 116%; growth at 10 µM (TK-10): 108%
